The source of these data is patent USRE47689E1, “Compounds for treating spinal muscular atrophy” (PTC Therapeutics, Inc., priority 2011, dated 2019).

For series [1], the system named is SMN2 minigene (full length SMN2 minigene mRNA containing SMN2 exon 7). As to the kind of experiment: SMN2 minigene mRNA splicing RT-qPCR assay in cultured cells. It counts as cell-based, human. The settings on record: Homo sapiens, HEK293-H, read-out: EC1.5x for production of full length SMN2 mRNA. In outline:
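Full-length SMN2 minigene mRNA (exon 7 included), minigene-specific and not endogenous SMN, quantified by RT-qPCR multiplexed with GAPDH in stably transfected HEK293H cells after 24 h compound exposure at 37° C. Abundance from efficiency-corrected Ct, normalized to GAPDH and vehicle; EC1.5x reported as star bins.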
On the technique in general: Quantitative PCR measures a nucleic acid by following its amplification.

Series [2] relates to Smn protein. Briefly: Smn protein assay in cultured cells (SMN HTRF). Type of series: cell-based, human. The settings on record: 48 hours; for EC1.5x (concentration giving 1.5-fold Smn protein increase): SMA Type 1 patient fibroblast cells (GM03813), 7-point concentration curve, SMN HTRF, concentration producing 1.5 times Smn protein vs DMSO vehicle control, read-out: EC1.5x for Smn protein expression; for maximum fold (Fold) increase of Smn protein: SMA patient fibroblast cells, 7-point concentration data, fold increase relative to vehicle control (SMN HTRF). In outline:
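Smn in SMA fibroblast lysates, measured by anti-SMN HTRF after 48 h compound exposure; EC1.5x from fold change over vehicle.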
For orientation: TR-FRET usually uses a lanthanide donor and a delayed reading to cut background.

The mark [3] stands for this setting: HEK293H cells stably transfected with SMN2-A minigene, 24 hours, 7-point concentration curve, 1.5-fold relative to vehicle-treated cells.

Where two headings read alike, the source gives them in different places.

For orientation: melting point means the temperature of the solid-liquid transition. In turn, `Cc1cn2cc(-c3cc4c(F)cc(N5CCCN(C)CC5)cc4oc3=O)nc2c(C)n1` [Compound 614, 3-(6,8-dimethylimidazo[1,2-a]pyrazin-2-yl)-5-fluoro-7-(4-methyl-1,4-diazepan-1-yl)-2H-chromen-2-one] gave a melting point of 223 to 225 °C. Also, the EC (1.5-fold) in series [1] (setting [3]) is < 0.1 µM. In series [2], the EC1.5x (concentration giving 1.5-fold Smn protein increase) is < 300 nM and the “maximum fold (Fold) increase of Smn protein” value (“maximum fold (Fold) increase” for short) is “***** (fold increase >1.65)”.
In turn, `Cc1cc2cc(-c3cc4ccc(N5CCN(C)[C@H](C)C5)cc4oc3=O)oc2c(C)n1` [Compound 807, 3-(5,7-dimethylfuro[2,3-c]pyridin-2-yl)-7-[(3R)-3,4-dimethylpiperazin-1-yl]-2H-chromen-2-one] displayed a melting point of 199 to 204 °C. The EC (1.5-fold) in series [1] (setting [3]) is < 0.1 µM. Moreover, in series [2], the EC1.5x (concentration giving 1.5-fold Smn protein increase) is < 300 nM and the “maximum fold (Fold) increase” value was “***** (fold increase >1.65)”.
`COc1ccc(-c2cc3ccc(N4CCNCC4)cc3oc2=O)cc1F` [Compound 544, 3-(3-fluoro-4-methoxyphenyl)-7-(piperazin-1-yl)-2H-chromen-2-one]: the melting point fell in the range of 241 to 243 °C. For the same compound, the EC (1.5-fold) in series [1] (setting [3]) lay within 0.1 to 0.3 µM. In series [2], the “maximum fold (Fold) increase” value is “** (fold increase between >1.2 and ≤1.35)”.
For the compound `C[C@@H]1CN(c2ccc3cc(-c4cn5cc(Cl)cnc5n4)c(=O)oc3c2)CCN1` [Compound 350, 3-(6-chloroimidazo[1,2-a]pyrimidin-2-yl)-7-[(3R)-3-methylpiperazin-1-yl]-2H-chromen-2-one], the melting point is 255 to 259 °C. Besides, the EC (1.5-fold) in series [1] (setting [3]) is 1 to 3 µM. Moreover, the “maximum fold (Fold) increase” value in series [2] is “* (maximum fold increase of ≤1.2)”.
Regarding `O=c1oc2cc(N3CCNCC3)ccc2cc1-c1nc2ccccc2[nH]1` [Compound 313, 3-(1H-benzimidazol-2-yl)-7-(piperazin-1-yl)-2H-chromen-2-one], the melting point lay within 254 to 258 °C. For the same compound, the EC (1.5-fold) in series [1] (setting [3]) lay in the range of 0.3 to 1 µM. The “maximum fold (Fold) increase” value in series [2] is “* (maximum fold increase of ≤1.2)”.
`Cc1cn2cc(-c3cc4ccc(N5CCN(C)CC5)cc4oc3=O)cc2cn1` [Compound 590, 7-(4-methylpiperazin-1-yl)-3-(3-methylpyrrolo[1,2-a]pyrazin-7-yl)-2H-chromen-2-one] gave a melting point of 212 to 214 °C. Moreover, in series [1] (setting [3]), the EC (1.5-fold) was < 0.1 µM. Moreover, in series [2], the EC1.5x (concentration giving 1.5-fold Smn protein increase) is < 300 nM and the “maximum fold (Fold) increase” value is listed as “***** (fold increase >1.65)”.
With `Cc1c(-c2nc3ccccc3s2)c(=O)oc2cc(N3CCNCC3)ccc12` [Compound 147, 3-(1,3-benzothiazol-2-yl)-4-methyl-7-(piperazin-1-yl)-2H-chromen-2-one], the melting point was 234 to 236 °C. The EC (1.5-fold) in series [1] (setting [3]) is 1 to 3 µM. In addition, the “maximum fold (Fold) increase” value in series [2] is recorded as “* (maximum fold increase of ≤1.2)”.
Turning to `C[C@H]1CN(c2ccc3cc(-c4cc5ccccc5o4)c(=O)oc3c2)CCN1` [Compound 603, 3-(1-benzofuran-2-yl)-7-[(3S)-3-methylpiperazin-1-yl]-2H-chromen-2-one], the melting point fell in the range of 192 to 194 °C. Besides, the EC (1.5-fold) in series [1] (setting [3]) was in the range of 0.3 to 1 µM. In series [2], the “maximum fold (Fold) increase” value is listed as “* (maximum fold increase of ≤1.2)”.
`O=c1oc2cc(O[C@H]3CCNC3)ccc2cc1-c1nc2ccccc2s1` [Compound 54, 3-(1,3-benzothiazol-2-yl)-7-[(3S)-pyrrolidin-3-yloxy]-2H-chromen-2-one] had a melting point of 205 to 211 °C. Moreover, in series [1] (setting [3]), the EC (1.5-fold) lay in the range of 1 to 3 µM. Also, in series [2], the “maximum fold (Fold) increase” value is given as “* (maximum fold increase of ≤1.2)”.
In the case of `Cc1cc([N+](=O)[O-])c2nc(-c3cc4ccc(N5CCN[C@@H](C)C5)cc4oc3=O)cn2c1` [Compound 703, 3-(6-methyl-8-nitroimidazo[1,2-a]pyridin-2-yl)-7-[(3S)-3-methylpiperazin-1-yl]-2H-chromen-2-one], the melting point lay within 251 to 259 °C. Further, the EC (1.5-fold) in series [1] (setting [3]) lay within 1 to 3 µM. Moreover, the “maximum fold (Fold) increase” value in series [2] was “** (fold increase between >1.2 and ≤1.35)”.
The compound `Cc1nn2cc(-c3cc4ccc(N5CCN[C@@H](C)C5)cc4oc3=O)nc2s1` [Compound 482, 3-(2-methylimidazo[2,1-b][1,3,4]thiadiazol-6-yl)-7-[(3S)-3-methylpiperazin-1-yl]-2H-chromen-2-one] showed a melting point of 205 to 209 °C. In series [1] (setting [3]), the EC (1.5-fold) is < 0.1 µM. Besides, in series [2], the EC1.5x (concentration giving 1.5-fold Smn protein increase) was < 300 nM; the “maximum fold (Fold) increase” value is “**** (fold increase between >1.5 and ≤1.65)”.
Regarding `Cc1cn2cc(-c3cc4ccc(N5CCCN(C)CC5)cc4oc3=O)cc2cn1` [Compound 589, 7-(4-methyl-1,4-diazepan-1-yl)-3-(3-methylpyrrolo[1,2-a]pyrazin-7-yl)-2H-chromen-2-one], the melting point was 148 to 150 °C. In addition, the EC (1.5-fold) in series [1] (setting [3]) was < 0.1 µM. For the same compound, in series [2], the EC1.5x (concentration giving 1.5-fold Smn protein increase) is < 300 nM and the “maximum fold (Fold) increase” value is given as “***** (fold increase >1.65)”.
Compound `Cc1cn2cc(-c3cc4ccc(N5CCC6(CCNC6)C5)cc4oc3=O)nc2c(C)n1` (stereo not shown) [Compound 945, 7-(2,7-diazaspiro[4.4]non-2-yl)-3-(6,8-dimethylimidazo[1,2-a]pyrazin-2-yl)-2H-chromen-2-one] displayed a melting point of 190 to 200 °C. Besides, in series [1] (setting [3]), the EC (1.5-fold) is < 0.1 µM. Moreover, in series [2], the EC1.5x (concentration giving 1.5-fold Smn protein increase) is < 300 nM and the “maximum fold (Fold) increase” value is given as “***** (fold increase >1.65)”.
In the case of `O=c1oc2cc(N3CCNCC3)ccc2cc1-c1cccs1` [Compound 363, 7-(piperazin-1-yl)-3-(thiophen-2-yl)-2H-chromen-2-one], the melting point was in the range of 193 to 195 °C. For the same compound, in series [1] (24 h), the EC (1.5-fold) fell in the range of 1 to 3 µM. Moreover, the “maximum fold (Fold) increase” value in series [2] was “** (fold increase between >1.2 and ≤1.35)”.
As for `Cc1ccc2nc(-c3cc4ccc(N5CCNCC5)c(F)c4oc3=O)cn2c1` [Compound 156, 8-fluoro-3-(6-methylimidazo[1,2-a]pyridin-2-yl)-7-(piperazin-1-yl)-2H-chromen-2-one], the melting point is 313 to 319 °C. In series [1] (setting [3]), the EC (1.5-fold) was 1 to 3 µM. Moreover, in series [2], the “maximum fold (Fold) increase” value was “** (fold increase between >1.2 and ≤1.35)”.
`CCOc1ncccc1-c1cc2ccc(N3CCNCC3)cc2oc1=O` [Compound 256, 3-(2-ethoxypyridin-3-yl)-7-(piperazin-1-yl)-2H-chromen-2-one] registered a melting point of 186 to 188 °C. In series [1] (setting [3]), the EC (1.5-fold) lay in the range of 3 to 30 µM. Also, the “maximum fold (Fold) increase” value in series [2] is given as “* (maximum fold increase of ≤1.2)”.
In turn, `O=c1oc2cc(N3CCN(CCO)CC3)ccc2cc1-c1cn2cc(Cl)ccc2n1` [Compound 104, 3-(6-chloroimidazo[1,2-a]pyridin-2-yl)-7-[4-(2-hydroxyethyl)piperazin-1-yl]-2H-chromen-2-one] came in with a melting point of 245 to 250 °C. Also, the EC (1.5-fold) in series [1] (setting [3]) lay in the range of 3 to 30 µM. The “maximum fold (Fold) increase” value in series [2] was “*** (fold increase between >1.35 and ≤1.5)”.
In turn, `Cc1cccc2oc(-c3cc4ccc(N5C[C@@H](C)N[C@@H](C)C5)cc4oc3=O)nc12` [Compound 31, 7-[(3R,5S)-3,5-dimethylpiperazin-1-yl]-3-(4-methyl-1,3-benzoxazol-2-yl)-2H-chromen-2-one] registered a melting point of 243 to 245 °C. Besides, the EC (1.5-fold) in series [1] (setting [3]) was 3 to 30 µM. Further, in series [2], the “maximum fold (Fold) increase” value is given as “* (maximum fold increase of ≤1.2)”.
Take `Cc1cn2cc(-c3cc4ccc(N5CCN(C)C(C)(C)C5)cc4oc3=O)nc2c(C)n1` [Compound 737, 3-(6,8-dimethylimidazo[1,2-a]pyrazin-2-yl)-7-(3,3,4-trimethylpiperazin-1-yl)-2H-chromen-2-one]: the melting point lay in the range of 185 to 187 °C. In series [1] (setting [3]), the EC (1.5-fold) was < 0.1 µM. Further, in series [2], the EC1.5x (concentration giving 1.5-fold Smn protein increase) is < 300 nM and the “maximum fold (Fold) increase” value was “***** (fold increase >1.65)”.
`CC(C)N1CCN(c2ccc3cc(-c4nc5ccccc5s4)c(=O)oc3c2)CC1` [Compound 15, 3-(1,3-benzothiazol-2-yl)-7-[4-(propan-2-yl)piperazin-1-yl]-2H-chromen-2-one] returned a melting point of 238 to 246 °C. In series [1] (setting [3]), the EC (1.5-fold) fell in the range of 3 to 30 µM. For the same compound, the “maximum fold (Fold) increase” value in series [2] is reported as “* (maximum fold increase of ≤1.2)”.
`C[C@@H]1CN(c2ccc3cc(-c4cc5ccccn5n4)c(=O)oc3c2)C[C@H](C)N1` [Compound 189, 7-[(3R,5S)-3,5-dimethylpiperazin-1-yl]-3-(pyrazolo[1,5-a]pyridin-2-yl)-2H-chromen-2-one] came in with a melting point of 188 to 190 °C. The EC (1.5-fold) in series [1] (setting [3]) lay in the range of 1 to 3 µM. In addition, the “maximum fold (Fold) increase” value in series [2] is “** (fold increase between >1.2 and ≤1.35)”.
`Cc1cn2cc(-c3cc4ccc(N5C[C@H]6CCN(C)[C@H]6C5)cc4oc3=O)cc2c(C)n1` [Compound 755, 3-(1,3-dimethylpyrrolo[1,2-a]pyrazin-7-yl)-7-[(3aR,6aR)-1-methylhexahydropyrrolo[3,4-b]pyrrol-5(1H)-yl]-2H-chromen-2-one] had a melting point of 196 to 198 °C. For the same compound, the EC (1.5-fold) in series [1] (setting [3]) was < 0.1 µM. Moreover, in series [2], the “maximum fold (Fold) increase” value is “*** (fold increase between >1.35 and ≤1.5)”.
